This passage reports IC50 results from patent US8431593B2, “Heteroaryl amide derivatives” (H. Lundbeck A/S, priority 2006, dated 2013).

The structures appear in SMILES notation.

The first assay concerns the target T1, P2X7 receptor (Homo sapiens, UniProt Q99572).
T1 construct: host or cells: SH-SY5Y
T1 sequence (Q99572 1-595): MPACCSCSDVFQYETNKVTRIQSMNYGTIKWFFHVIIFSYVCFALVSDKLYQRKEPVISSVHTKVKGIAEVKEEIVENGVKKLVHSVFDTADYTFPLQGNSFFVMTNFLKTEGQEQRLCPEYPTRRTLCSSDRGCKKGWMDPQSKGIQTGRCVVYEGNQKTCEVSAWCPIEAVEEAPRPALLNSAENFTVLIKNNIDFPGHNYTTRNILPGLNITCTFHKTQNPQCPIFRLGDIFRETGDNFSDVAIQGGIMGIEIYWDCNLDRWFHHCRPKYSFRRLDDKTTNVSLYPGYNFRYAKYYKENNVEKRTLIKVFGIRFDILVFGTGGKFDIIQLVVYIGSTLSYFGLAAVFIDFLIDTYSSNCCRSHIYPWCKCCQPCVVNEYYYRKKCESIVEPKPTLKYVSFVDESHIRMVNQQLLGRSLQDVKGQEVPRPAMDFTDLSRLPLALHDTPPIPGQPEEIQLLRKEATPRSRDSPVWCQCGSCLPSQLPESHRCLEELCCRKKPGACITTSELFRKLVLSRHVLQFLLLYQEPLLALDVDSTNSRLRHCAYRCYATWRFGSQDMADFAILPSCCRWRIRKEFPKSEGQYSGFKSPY
Nature of the assay: P2X7 calcium mobilization assay, high throughput, antagonist activity (Example 4A).
Settings: not given
It counts as cell-based. In a few lines:
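Antagonism was measured as calcium fluorescence (FLIPR Tetra) in cells seeded one day earlier at 100,000/well, loaded with dye for 1 h and exposed to compound for 1 h at room temperature before agonist. Peak RFU, minus the no-agonist background, was referenced to the mean of the agonist wells.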
For the compound `O=C(O)Cc1cn2c(C(=O)NCC34CC5CC(CC(C5)C3)C4)cccc2n1` [Compound 16, {5-[(adamantan-1-ylmethyl)carbamoyl]imi-dazo[1,2-a]pyridin-2-yl}acetic acid], the IC50 – broadly, the concentration that gives 50% inhibition – is below 2000 nM.

Take `COCCC1CCN(C(=O)c2cn3c(C(=O)NCC45CC6CC(CC(C6)C4)C5)cccc3n2)CC1` [Compound 88, N-(adamantan-1-ylmethyl)-2-{[4-(2-methoxyethyl)piperidin-1-yl]carbonyl}imidazo[1,2-a]pyridine-5-carboxamide]: the half-inhibitory concentration (IC50) was below 2000 nM.

With `O=C(NCC12CC3CC(CC(C3)C1)C2)c1cccc2nc(CNCCO)cn12` [Compound 65, N-(adamantan-1-ylmethyl)-2-{[(2-hydroxy-ethyl)amino]methyl}imi-dazo[1,2-a]pyridine-5-carboxamide], the IC50 is below 2000 nM.

Still in this assay, the particulars now being: 50% decrease in the fluorescence response of cells exposed to 80 μM 2′(3′)-O-(4-benzoyl-benzoyl)adenosine 5′-triphosphate; Example 4A; read-out: IC50.
With `CC(CO)c1cn2c(C(=O)NCC34CC5CC(CC(C5)C3)C4)cccc2n1` (stereo not drawn) [Compound 535, N-(adamantan-1-ylmethyl)-2-(2-hydroxy-1-methylethyl)imidazo[1,2-a]pyridine-5-carboxamide], the IC50 is below 2000 nM.

For `CC(C)[C@H]1CNCCN1C(=O)Cc1cn2c(C(=O)NC[C@@H]3CC[C@@H]4C[C@H]3C4(C)C)cccc2n1` [Compound 569, N-{[(1R,2R,5R)-6,6-dimethylbicyclo[3.1.1]hept-2-yl]methyl}-2-{2-[(2S)-2-isopropylpiperazin-1-yl]-2-oxoethyl}imidazo[1,2-a]pyridine-5-carboxamide], the IC50 was below 2000 nM.

For `CCN(Cc1cn2c(C(=O)NCC34CC5CC(CC(C5)C3)C4)cccc2n1)C(=O)c1nnc[nH]1` [Compound 552, N-(adamantan-1-ylmethyl)-2-{[ethyl(4H-1,2,4-triazol-3-ylcarbonyl)amino]methyl}imidazo[1,2-a]pyridine-5-carboxamide], the IC50 is below 2000 nM.

Regarding `O=C(NCC12CC3CC(CC(C3)C1)C2)c1cccc2nc(C(=O)N3CCNCC3)cn12` [Compound 603, N-(adamantan-1-ylmethyl)-2-(piperazin-1-ylcarbonyl) imidazo[1,2-a]pyridine-5-carboxamide], the IC50 is below 2000 nM.

The assay is the same for the next values; noted with them: 50% decrease in the fluorescence response of cells exposed to 80 μM of 2′(3′)-O-(4-benzoyl-benzoyl)adenosine 5′-triphosphate; Example 4A; read-out: IC50.
Turning to `CC(C)(C)OC(=O)N[C@@H]1CCN(Cc2cn3c(C(=O)NCC(CC4CCC4)c4ccccc4)cccc3n2)C1` (stereo in doubt) [Compound 777, tert-butyl [1-({5-[(3-cyclobutyl-2-phenylpropyl)carbamoyl]imidazo[1,2-a]pyridin-2-yl}methyl)pyrrolidin-3-yl]carbamate], the IC50 is below 2000 nM.

`CN1CCCCC1CNC(=O)c1cn2c(C(=O)NCC34CC5CC(CC(C5)C3)C4)cccc2n1` (stereo not drawn) [Compound 666, 5-N-(adamantan-1-ylmethyl)-2-N-[(1-methylpiperidin-2-yl)methyl]imidazo[1,2-a]pyridine-2,5-dicarboxamide]: the IC50 is below 2000 nM.

On to `CCN(CCN(C)C)C(=O)c1cn2c(C(=O)NCC34CC5CC(CC(C5)C3)C4)cccc2n1` [Compound 672, 5-N-(adamantan-1-ylmethyl)-2-N-[2-(dimethylamino)ethyl]-2-N-ethylimidazo[1,2-a]pyridine-2,5-dicarboxamide], for which the IC50 is below 2000 nM.

`N[C@@H]1CCN(C(=O)c2cn3c(NC(=O)CC45CC6CC(CC(C6)C4)C5)cccc3n2)C1` [Compound 725, 2-adamantan-1-yl-N-(2-{[(3R)-3-aminopyrrolidin-1-yl]carbonyl}imidazo[1,2-a]pyridin-5-yl)acetamide]: the IC50 was below 2000 nM.

Regarding `CN(C)CCCN(C(=O)c1cn2c(C(=O)NCC34CC5CC(CC(C5)C3)C4)cccc2n1)C1CCNCC1(C)C` (stereo not drawn) [Compound 621, 5-N-(adamantan-1-ylmethyl)-2-N-[3-(dimethylamino)propyl]-2-N-(3,3-dimethylpiperidin-4-yl)imidazo[1,2-a]pyridine-2,5-dicarboxamide], the IC50 was below 2000 nM.

The same assay, now with this note: 50% decrease in the fluorescence response of cells exposed to 80 μM of 2′(3′)-O-(4-benzoyl-benzoyl)adenosine 5′-triphosphate; determined as in Example 4A; read-out: IC50.
`CC(C)CC(CNC(=O)c1cccc2nc(Cn3nnc(CCO)n3)cn12)c1ccc(Cl)cc1` (stereo not drawn) [Compound 918, N-[2-(4-chlorophenyl)-4-methylpentyl]-2-{[5-(2-hydroxyethyl)-2H-tetrazol-2-yl]methyl}imidazo[1,2-a]pyridine-5-carboxamide]: the IC50 is below 2000 nM.

In the case of `CC(C)CC(CNC(=O)c1cccc2nc(CC(=O)O)cn12)c1ccc(C(F)(F)F)cc1` (stereo not drawn) [Compound 965, [5-({4-methyl-2-[4-(trifluoromethyl)phenyl]pentyl}carbamoyl)imidazo[1,2-a]pyridin-2-yl] acetic acid], the IC50 is below 2000 nM.

On to `CCOC(=O)[C@@H]1CCCC[C@@H]1c1cn2c(C(=O)NCC34CC5CC(CC(C5)C3)C4)cccc2n1` (relative stereo) [Compound 996, ethyl rel-(1R,2S)-2-{5-[(adamantan-1-ylmethyl)carbamoyl]imidazo[1,2-a]pyridin-2-yl} cyclohexane-carboxylate], for which the half-inhibitory concentration (IC50) is below 2000 nM.

Regarding `CCCC(CNC(=O)c1cccc2nc(CC(=O)N3CCC[C@@H](N)C3)cn12)c1ccc(Cl)cc1` (stereo partly drawn) [Compound 929, 2-{2-[(3R)-3-aminopiperidin-1-yl]-2-oxoethyl}-N-[2-(4-chlorophenyl)pentyl] imidazo[1,2-a] pyridine-5-carboxamide], the IC50 was below 2000 nM.

For the compound `CC(C)CC(CNC(=O)c1cccc2nc(CC(=O)N3CCC[C@@H](NC(=O)OC(C)(C)C)C3)cn12)c1ccc(Cl)cc1` (stereo partly drawn) [Compound 928, tert-butyl {(3R)-1-[(5-{[2-(4-chlorophenyl)-4-methylpentyl]carbamoyl}imidazo[1,2-a]pyridin-2-yl)acetyl]piperidin-3-yl}carbamate], the IC50 was below 2000 nM.

Turning to `CCOC(=O)C(Cc1cccc(OC)c1)c1cn2c(C(=O)NCC34CC5CC(CC(C5)C3)C4)cccc2n1` (stereo not drawn) [Compound 842, ethyl 2-{5-[(adamantan-1-ylmethyl)carbamoyl]imidazo[1,2-a]pyridin-2-yl}-3-(3-methoxyphenyl) propanoate], the concentration for half-maximal inhibition (IC50) is below 2000 nM.

For `O=C(NCC1(c2ccc(Cl)cc2)CCCCC1)c1cccc2nc(C(Cc3ccc(Cl)cc3)C(=O)O)cn12` (stereo not drawn) [Compound 935, 3-(4-chlorophenyl)-2-[5-({[1-(4-chlorophenyl)cyclohexyl]methyl}carbamoyl)imidazo[1,2-a]pyridin-2-yl] propanoic acid], the IC50 is below 2000 nM.

The same assay, now with this note: SH-SY5Y cells; 50% decrease in fluorescence response to 80 μM BzATP; read-out: IC50.
For `COC1CCN(C(=O)c2cn3c(C(=O)NCC45CC6CC(CC(C6)C4)C5)cccc3n2)CC1` [Compound 95, N-(adamantan-1-ylmethyl)-2-[(4-methoxypiperidin-1-yl)carbonyl]imidazo[1,2-a]pyridine-5-carboxamide], the IC50 was below 2000 nM.

Turning to `CC1(O)CCN(C(=O)Cc2cn3c(C(=O)NCC45CC6CC(CC(C6)C4)C5)cccc3n2)CC1` [Compound 56, N-(adamantan-1-ylmethyl)-2-[2-(4-hydroxy-4-methylpiperidin-1-yl)-2-oxoethyl]imidazo[1,2-a]pyridine-5-carboxamide], the 50% inhibitory concentration (IC50) is below 2000 nM.

As for `NC(=O)C1CCN(C(=O)c2cn3c(C(=O)NCC45CC6CC(CC(C6)C4)C5)cccc3n2)CC1` [Compound 102, N-(adamantan-1-ylmethyl)-2-[(4-carbamoylpiperidin-1-yl)carbonyl]imidazo[1,2-a]pyridine-5-carboxamide], the IC50 was below 2000 nM.

Turning to `O=C(Cc1cn2c(C(=O)NCC34CC5CC(CC(C5)C3)C4)cccc2n1)NC1CCCC1` [Compound 153, N-(adamantan-1-ylmethyl)-2-[2-(cyclopentylamino)-2-oxoethyl]imidazo[1,2-a]pyridine-5-carboxamide], the IC50 was below 2000 nM.

Turning to `CN(CCNS(C)(=O)=O)C(=O)Cc1cn2c(C(=O)NCC34CC5CC(CC(C5)C3)C4)cccc2n1` [Compound 45, N-(adamantan-1-ylmethyl)-2-[2-(methyl{2-[(methyl-sulfonyl)amino]eth-yl}amino)-2-oxoethyl]imidazo[1,2-a]pyridine-5-carboxamide], the IC50 was below 2000 nM.

In the case of `CCN1CCN(C(=O)Cc2cn3c(C(=O)NCC45CC6CC(CC(C6)C4)C5)cccc3n2)CC1` [Compound 169, N-(adamantan-1-ylmethyl)-2-[2-(4-ethylpiperazin-1-yl)-2-oxoethyl]imidazo[1,2-a]pyridine-5-carboxamide], the IC50 is below 2000 nM.

In the case of `CCOC(=O)Cc1cn2c(C(=O)NCC3CCCCC3)cccc2n1` [Compound 141, ethyl {5-[(cyclohexylmethyl)car-bamoyl]imidazo[1,2-a]pyridin-2-yl}acetate], the concentration for half-maximal inhibition (IC50) was below 2000 nM.

The same assay, now with this note: fluorescence response of cells exposed to 80 μM 2′(3′)-O-(4-benzoyl-benzoyl)adenosine 5′-triphosphate; Example 4A; read-out: IC50.
Regarding `Cc1c(C(=O)O)ncn1Cc1cn2c(C(=O)NCC34CC5CC(CC(C5)C3)C4)cccc2n1` [Compound 279, 1-({5-[(adamantan-1-ylmethyl)carbamoyl]imidazo[1,2-a]pyridin-2-yl}methyl)-5-methyl-1H-imidazole-4-carboxylic acid], the IC50 was below 2000 nM.
